Assay results: patent US11345762B2, “Method for preparing liquid medium composition, and preparation device and kit therefor” (NISSAN CHEMICAL INDUSTRIES, LTD., priority 2015, dated 2022)

Legend:
[1] = system: Human pancreatic cancer cell line Panc02,03; assay: Proliferation action on Panc02,03 cell stimulated by each growth factor (ATP, CellTiter-Glo); type: cell-based
[2] = system: Human lung cancer cell line A549; assay: A549 cell proliferation suppressive test with anticancer agents in low adhesion plate (ATP, CellTiter-Glo); type: cell-based
Experimental: Deacylated gellan gum (KELCOGEL CG-LA, manufactured by Sansho Co., Ltd.) was suspended in ultra pure water (Milli-Q water) to 0.3% (w/v) or 0.75% (w/v), dissolved by stirring with heating at 90° C., and this aqueous solution was autoclave sterilized at 121° C. for 20 min. Using 0.3% solution, a medium composition was prepared by adding deacylated gellan gum (final concentration 0.015% (w/v)) to DMEM medium (manufactured by WAKO) containing 10% (v/v) fetal bovine serum. Fetal bovine serum was added at 10% (v/v) to a medium composition prepared in Example 7.
Human lung cancer cell line A549 (manufactured by DS PHARMA BIOMEDICAL) was seeded in the above-mentioned medium composition added with deacylated gellan gum (conventional method) or the medium composition of Example 7 at 14800 cells/mL, and dispensed to the wells of a 96 well flat bottom ultra-low adhesive surface microplate (Corning Incorporated manufactured by, #3474) at 135 μL per […]. As a negative control, A549 cells were suspended in the above-mentioned medium free of deacylated gellan gum and dispensed. Each plate was cultured in a static state in a CO2 incubator (37° C., 5% CO2). On day 1 of culture, medium compositions (conventional method and the production method of the present invention) containing each anticancer agent at 10-fold concentration and deacylated gellan gum (final concentration 0.015% (w/v)), and a medium composition containing each anticancer agent alone at 10-fold concentration (non-addition method), 15 μL each, was added to a final concentration of 0.001 to 30 μM, and culture was continued for 7 days. As the anticancer agent, Trametinib (manufactured by Santa Cruz, MEK inhibitor) and MK-2206 (manufactured by Santa Cruz, Akt inhibitor) were used. ATP reagent (150 μL, CellTiter-Glo™ Luminescent Cell Viability Assay, manufactured by Promega) was added to the culture media on days 5 and 8 and suspended therein, stood for about 10 min at room temperature, and the luminescence intensity (RLU value) was measured by FlexStation3 (manufactured by Molecular Devices), from which the luminescence with the medium alone was subtracted to measure the number of viable cells.

## human IGF-1: growth factor, manufactured by PEPROTECH
[1]; Panc02,03, 10 ng/mL, medium composition of Example 13, on day 6 (head)
  % control of RLU value (ATP measurement, luminescence intensity): 100 % Control
[1]; Panc02,03, 10 ng/mL, monolayer culture group, culture conditions on day 6 (head)
  % control of RLU value (ATP measurement, luminescence intensity): 101 % Control
[1]; Panc02,03, 10 ng/mL, negative control group (medium free of deacylated gellan gum, low adhesion plate), on day 6 (head)
  % control of RLU value (ATP measurement, luminescence intensity): 119 % Control
[1]; Panc02,03, 100 ng/mL, medium composition of Example 13, on day 6 (head)
  % control of RLU value (ATP measurement, luminescence intensity): 110 % Control
[1]; Panc02,03, 100 ng/mL, monolayer culture group, culture conditions on day 6 (head)
  % control of RLU value (ATP measurement, luminescence intensity): 98 % Control
[1]; Panc02,03, 100 ng/mL, negative control group (medium free of deacylated gellan gum, low adhesion plate), on day 6 (head)
  % control of RLU value (ATP measurement, luminescence intensity): 121 % Control

## NC1(c2ccc(-c3nc4ccn5c(=O)[nH]nc5c4cc3-c3ccccc3)cc2)CCC1 [MK-2206]
[2]; A549, day 4 of static culture, 0.03 μM, conventional method
  % control of RLU value (ATP measurement, luminescence intensity): 100 % Control
[2]; A549, day 4 of static culture, 0.03 μM, non-addition method
  % control of RLU value (ATP measurement, luminescence intensity): 108 % Control
[2]; A549, day 4 of static culture, 0.03 μM, production method of present invention
  % control of RLU value (ATP measurement, luminescence intensity): 85 % Control
[2]; A549, day 4 of static culture, 0.1 μM, conventional method
  % control of RLU value (ATP measurement, luminescence intensity): 91 % Control
[2]; A549, day 4 of static culture, 0.1 μM, non-addition method
  % control of RLU value (ATP measurement, luminescence intensity): 99 % Control
[2]; A549, day 4 of static culture, 0.1 μM, production method of present invention
  % control of RLU value (ATP measurement, luminescence intensity): 74 % Control
[2]; A549, day 4 of static culture, 0.3 μM, conventional method
  % control of RLU value (ATP measurement, luminescence intensity): 71 % Control
[2]; A549, day 4 of static culture, 0.3 μM, non-addition method
  % control of RLU value (ATP measurement, luminescence intensity): 93 % Control
[2]; A549, day 4 of static culture, 0.3 μM, production method of present invention
  % control of RLU value (ATP measurement, luminescence intensity): 60 % Control
[2]; A549, day 4 of static culture, 1 μM, conventional method
  % control of RLU value (ATP measurement, luminescence intensity): 50 % Control
[2]; A549, day 4 of static culture, 1 μM, non-addition method
  % control of RLU value (ATP measurement, luminescence intensity): 78 % Control
[2]; A549, day 4 of static culture, 1 μM, production method of present invention
  % control of RLU value (ATP measurement, luminescence intensity): 43 % Control
[2]; A549, day 4 of static culture, 3 μM, conventional method
  % control of RLU value (ATP measurement, luminescence intensity): 38 % Control
[2]; A549, day 4 of static culture, 3 μM, non-addition method
  % control of RLU value (ATP measurement, luminescence intensity): 62 % Control
[2]; A549, day 4 of static culture, 3 μM, production method of present invention
  % control of RLU value (ATP measurement, luminescence intensity): 33 % Control
[2]; A549, day 7 of static culture, 0.03 μM, conventional method
  % control of RLU value (ATP measurement, luminescence intensity): 92 % Control
[2]; A549, day 7 of static culture, 0.03 μM, non-addition method
  % control of RLU value (ATP measurement, luminescence intensity): 124 % Control
[2]; A549, day 7 of static culture, 0.03 μM, production method of present invention
  % control of RLU value (ATP measurement, luminescence intensity): 80 % Control
[2]; A549, day 7 of static culture, 0.1 μM, conventional method
  % control of RLU value (ATP measurement, luminescence intensity): 83 % Control
[2]; A549, day 7 of static culture, 0.1 μM, non-addition method
  % control of RLU value (ATP measurement, luminescence intensity): 101 % Control
[2]; A549, day 7 of static culture, 0.1 μM, production method of present invention
  % control of RLU value (ATP measurement, luminescence intensity): 69 % Control
[2]; A549, day 7 of static culture, 0.3 μM, conventional method
  % control of RLU value (ATP measurement, luminescence intensity): 63 % Control
[2]; A549, day 7 of static culture, 0.3 μM, non-addition method
  % control of RLU value (ATP measurement, luminescence intensity): 103 % Control
[2]; A549, day 7 of static culture, 0.3 μM, production method of present invention
  % control of RLU value (ATP measurement, luminescence intensity): 54 % Control
[2]; A549, day 7 of static culture, 1 μM, conventional method
  % control of RLU value (ATP measurement, luminescence intensity): 38 % Control
[2]; A549, day 7 of static culture, 1 μM, non-addition method
  % control of RLU value (ATP measurement, luminescence intensity): 85 % Control
[2]; A549, day 7 of static culture, 1 μM, production method of present invention
  % control of RLU value (ATP measurement, luminescence intensity): 34 % Control
[2]; A549, day 7 of static culture, 3 μM, conventional method
  % control of RLU value (ATP measurement, luminescence intensity): 26 % Control
[2]; A549, day 7 of static culture, 3 μM, non-addition method
  % control of RLU value (ATP measurement, luminescence intensity): 76 % Control
[2]; A549, day 7 of static culture, 3 μM, production method of present invention
  % control of RLU value (ATP measurement, luminescence intensity): 21 % Control
[2]; A549, medium composition of the present invention
  efficacy on A549 cell proliferation in the medium composition of the present invention (in words): strong efficacy
